Experimental data from US9440950B2, “Arginine methyltransferase inhibitors and uses thereof” (Epizyme, Inc., priority 2013, dated 2016).
pIC50: −log10 of the molar value.

These compounds were tested against T1, human PRMT8 (Homo sapiens, UniProt Q9NR22) (assay: PRMT8 Biochemical Assay). Conditions: peptide substrate, 3H-SAM Flashplate assay.
T1 construct: Full-length human PRMT8 (NM_019854.4) isoform 1 transcript clone; made in house
From the text: S-adenosylmethionine (SAM), S-adenosylhomocysteine (SAH), bicine, Tween20, dimethylsulfoxide (DMSO), bovine skin gelatin (BSG), isopropyl-P3-D-thiogalactopyranoside (IPTG), and Tris(2-carboxyethyl)phosphine hydrochloride solution (TCEP) were purchased from Sigma-Aldrich at the highest level of purity possible. ^3H-SAM was purchase from American Radiolabeled Chemicals with a specific activity of 80 Ci/mmol. 384-well streptavidin Flashplates were purchased from PerkinElmer.
Peptide representative of human histone H4 residues 31-45 was synthesized with an N-terminal linker-affinity tag motif and a C-terminal amide cap by 21st Century Biochemicals. The peptide was purified by high-performance liquid chromatography (HPLC) to greater than 95% purity and confirmed by liquid chromatography mass spectrometry (LC-MS). The sequence was Biot-Ahx-[…]-amide (SEQ ID NO.:8).
The resulting construct encodes an N-terminal GST tag and a thrombin cleavage sequence ([…] […] […] […]) (SEQ ID NO.:9) fused directly to Met 1 of PRMT8.
E. coli (BL21(DE3) Gold, Stratagene) made competent by the CaCl2 method were transformed with the PRMT8 construct and ampicillin selection. Protein over-expression was accomplished by growing the PRMT8 expressing E. coli clone and inducing expression with 0.3 mM IPTG at 16° C. The culture was grown for 12 hours, harvested by centrifugation, and stored at −80° C. for purification.
The column was washed with 50 mM phosphate buffer, 100 mM NaCl, 5% glycerol, 5 mM β-mercaptoethanol, pH 7.8 and PRMT8 was eluted by 100 mM phosphate in the same buffer. Protein was concentrated and buffer was exchanged to 50 mM Tris, 300 mM NaCl, 10% glycerol, 5 mM β-mercaptoethanol, pH 7.8 by ultrafiltration. The purity of recovered protein was 89%.
General Procedure for PRMT8 Enzyme Assays on Peptide Substrates.
The assays were all performed in a buffer consisting of 20 mM Bicine (pH=7.6), 1 mM TCEP, 0.005% BSG, and 0.002% Tween 20, prepared on the day of use. Compounds in 100% DMSO (1 ul) were spotted into a polypropylene 384-well V-bottom plates (Greiner) using a Platemate Plus outfitted with a 384-channel head (Thermo Scientific). DMSO (1 ul) was added to Columns 11, 12, 23, 24, rows A-H for the maximum signal control and 1 ul of SAH, a known product and inhibitor of PRMT8, was added to columns 11, 12, 23, 24, rows I-P for the minimum signal control. A cocktail (40 ul) containing the PRMT8 enzyme was added by Multidrop Combi (Thermo-Fisher). The compounds were allowed to incubate with PRMT8 for 30 min at room temperature, then a cocktail (10 ul) containing ^3H-SAM and peptide was added to initiate the reaction (final volume=51 ul). The final concentrations of the components were as follows: PRMT8 was 1.5 nM, ^3H-SAM was 50 nM, non-radiolabeled SAM was 550 nM, peptide was 150 nM, SAH in the minimum signal control wells was 1 mM, and the DMSO concentration was 2%. The assays were stopped by the addition of non-radiolabeled SAM (10 ul) to a final concentration of 400 uM, which dilutes the ^3H-SAM to a level where its incorporation into the peptide substrate is no longer detectable. 50 ul of the reaction in the 384-well polypropylene plate was then transferred to a 384-well Flashplate and the biotinylated peptides were allowed to bind to the streptavidin surface for at least 1 hour before being washed once with 0.1% Tween20 in a Biotek ELx405 plate washer. The plates were then read in a PerkinElmer TopCount plate reader to measure the quantity of ^3H-labeled peptide bound to the Flashplate surface, measured as disintegrations per minute (dpm) or alternatively, referred to as counts per minute (cpm).
Where dpm=disintegrations per minute, cmpd=signal in assay well, and min and max are the respective minimum and maximum signal controls.
Where top and bottom are the normally allowed to float, but may be fixed at 100 or 0 respectively in a 3-parameter fit. […]

T1 sequence (Q9NR22 whole entry, canonical isoform): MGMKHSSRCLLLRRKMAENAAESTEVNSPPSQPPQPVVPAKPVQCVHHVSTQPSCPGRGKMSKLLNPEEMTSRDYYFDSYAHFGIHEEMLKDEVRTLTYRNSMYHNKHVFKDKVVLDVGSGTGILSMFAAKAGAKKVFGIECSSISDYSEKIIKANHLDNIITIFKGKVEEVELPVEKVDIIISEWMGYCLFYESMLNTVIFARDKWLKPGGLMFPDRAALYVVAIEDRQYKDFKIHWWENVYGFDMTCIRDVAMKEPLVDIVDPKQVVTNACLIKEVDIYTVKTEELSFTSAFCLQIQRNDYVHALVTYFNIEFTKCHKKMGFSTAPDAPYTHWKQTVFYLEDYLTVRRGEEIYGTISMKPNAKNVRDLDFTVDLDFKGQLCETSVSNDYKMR

Row | Structure (SMILES) | pIC50
1 | CNCCN(C)Cc1c[nH]nc1-c1cccnc1 [Compound 1] | 5.52 to 6.00
2 | CNCCN(C)Cc1c[nH]nc1-c1ccc(O)nc1 [Compound 2] | ≤ 5.00
3 | CNCCN(C)Cc1c[nH]nc1-c1ccc(N)nc1 [Compound 3] | 5.00 to 5.52
4 | CN(CCN)Cc1c[nH]nc1-c1cncc(S(C)(=O)=O)c1 [Compound 4] | ≤ 5.00
5 | COc1ccc(-c2n[nH]cc2CN(C)CCN)cn1 [Compound 5] | 5.52 to 6.00
6 | Cc1cncc(-c2n[nH]cc2CN(C)CCN)c1 [Compound 6] | 5.52 to 6.00
7 | CN(CCN)Cc1c[nH]nc1-c1cncc(F)c1 [Compound 7] | 5.52 to 6.00
8 | CN(CCN)Cc1c[nH]nc1-c1cccnc1 [Compound 8] | 5.52 to 6.00
9 | CN(CCN)Cc1c[nH]nc1-c1ccncc1 [Compound 9] | 6.00 to 7.00
10 | Cc1cc(-c2n[nH]cc2CN(C)CCN)cnc1Cl [Compound 10] | 6.00 to 7.00
11 | COc1cc(-c2n[nH]cc2CN(C)CCN)ccn1 [Compound 11] | 5.52 to 6.00
12 | COc1cc(-c2n[nH]cc2CN(C)CCN)c(Cl)cn1 [Compound 12] | 5.00 to 5.52
13 | CN(CCN)Cc1c[nH]nc1-c1ccc(C(F)(F)F)nc1 [Compound 13, N^1-methyl-N^1-((3-(6-(trifluoromethyl)pyridin-3-yl)-1H-pyrazol-4-yl)methyl)ethane-1,2-diamine] | 6.00 to 7.00
14 | COc1ncc(Cl)cc1-c1n[nH]cc1CN(C)CCN [Compound 14] | 5.00 to 5.52
15 | COc1ncccc1-c1n[nH]cc1CN(C)CCN [Compound 15] | 5.52 to 6.00
16 | COc1ccncc1-c1n[nH]cc1CN(C)CCN [Compound 16] | 5.00 to 5.52
17 | Cc1ccncc1-c1n[nH]cc1CN(C)CCN [Compound 17] | 5.00 to 5.52
18 | CN(CCN)Cc1c[nH]nc1-c1cncc(C#N)c1 [Compound 18] | 5.00 to 5.52
19 | CN(CCN)Cc1c[nH]nc1-c1cncc(Cl)c1 [Compound 19] | 5.52 to 6.00
20 | CN(CCN)Cc1c[nH]nc1-c1ccc(N2CCOCC2)nc1 [Compound 20] | 6.00 to 7.00
21 | CC(C)CN(C)c1ccc(-c2n[nH]cc2CN(C)CCN)cn1 [Compound 21] | 5.52 to 6.00
22 | CC(C)Oc1ccc(-c2n[nH]cc2CN(C)CCN)cn1 [Compound 22] | 6.00 to 7.00
23 | CN(CCN)Cc1c[nH]nc1-c1ccc(N(C)Cc2ccccc2)nc1 [Compound 23] | 6.00 to 7.00
24 | CCN(CC)c1ccc(-c2n[nH]cc2CN(C)CCN)cn1 [Compound 24] | 5.52 to 6.00
25 | CN(CCN)Cc1c[nH]nc1-c1ccc(NCc2ccccc2)nc1 [Compound 25] | 5.52 to 6.00
26 | CC(C)CNc1ccc(-c2n[nH]cc2CN(C)CCN)cn1 [Compound 26] | 5.52 to 6.00
27 | CN(CCN)Cc1c[nH]nc1-c1ccccn1 [Compound 27] | ≤ 5.00
28 | CN(CCN)Cc1c[nH]nc1-c1ccc(C#N)nc1 [Compound 28, 5-(4-(((2-aminoethyl)(methyl)amino)methyl)-1H-pyrazol-3-yl)picolinonitrile] | 6.00 to 7.00
29 | CN(CCN)Cc1c[nH]nc1-c1cnccc1C(F)(F)F [Compound 29] | ≤ 5.00
